In ChEMBL document CHEMBL3616475 (Bioorg Med Chem, 2015):
Calls of active or inactive are those of the source. The rule behind the calls is not given here.

Legend:
Rattus norvegicus [1] = species on record: Rattus norvegicus; assay: Selectivity ratio of Ki for Adenosine A2A receptor in Sprague-Dawley rat striatal membranes to Ki for Adenosine A1 receptor in Sprague-Dawley rat whole brain membranes
Adenosine receptor A2a [2] = target: T1, Adenosine receptor A2a (Rattus norvegicus, UniProt P30543); assay: Displacement of [3H]-NECA from Adenosine A2A receptor in Sprague-Dawley rat striatal membranes; parameters: species or system Striatum, Membrane
Adenosine receptor A1 [3] = target: T2, Adenosine receptor A1 (Rattus norvegicus, UniProt P25099); assay: Displacement of [3H]-DPCPX from Adenosine A1 receptor in Sprague-Dawley rat whole brain membranes; parameters: species or system Membrane
T2 sequence (P25099 whole entry): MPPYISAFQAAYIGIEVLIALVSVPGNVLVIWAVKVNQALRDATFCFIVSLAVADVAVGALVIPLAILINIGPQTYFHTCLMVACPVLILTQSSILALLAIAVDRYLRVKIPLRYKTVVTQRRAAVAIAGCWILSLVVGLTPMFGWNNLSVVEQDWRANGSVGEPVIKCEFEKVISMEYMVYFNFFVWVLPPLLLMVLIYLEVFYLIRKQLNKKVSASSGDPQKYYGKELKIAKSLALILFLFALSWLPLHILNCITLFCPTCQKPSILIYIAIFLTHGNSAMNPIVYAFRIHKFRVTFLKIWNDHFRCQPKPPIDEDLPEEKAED

Adenosine receptor A2a [4] = target: T1, Adenosine receptor A2a; assay: Binding affinity to Adenosine A2A receptor in rat brain tissue by radioligand displacement assay; type: tissue-based
Rattus norvegicus [5] = assay: Inhibition of CPA-induced hypolocomotion in Sprague-Dawley rat at 0.06 to […], ip administered 25 mins prior to CPA addition measured for 20 mins starting from 5 mins post habituation
Adenosine receptor A1 [6] = target: T2, Adenosine receptor A1
Description: Displacement of [3H]-DPCPX from Adenosine A1 receptor in Sprague-Dawley rat brain cortical membranes in presence of 0.1 mM GTP

Adenosine receptor A1 [7] = target: T2, Adenosine receptor A1; remark: listed apart in the source
Description: Displacement of [3H]-DPCPX from Adenosine A1 receptor in Sprague-Dawley rat brain cortical membranes in absence of GTP

Adenosine receptor A1 [8] = target: T2, Adenosine receptor A1; remark: listed apart in the source
Description: Displacement of [3H]-DPCPX from Adenosine A1 receptor in Sprague-Dawley rat whole brain membranes in presence of 0.1 mM GTP

Adenosine receptor A1 [9] = target: T2, Adenosine receptor A1; remark: listed apart in the source
Description: Displacement of [3H]-DPCPX from Adenosine A1 receptor in Sprague-Dawley rat whole brain membranes in absence of GTP

Rattus norvegicus [10] = assay: Inhibition of CPA-induced hypolocomotion in Sprague-Dawley rat at 0.03 to 0.1 mg/kg, ip administered 25 mins prior to CPA addition measured for 20 mins starting from 5 mins post habituation; type: functional, organism-based

T1 sequence (P30543 whole entry): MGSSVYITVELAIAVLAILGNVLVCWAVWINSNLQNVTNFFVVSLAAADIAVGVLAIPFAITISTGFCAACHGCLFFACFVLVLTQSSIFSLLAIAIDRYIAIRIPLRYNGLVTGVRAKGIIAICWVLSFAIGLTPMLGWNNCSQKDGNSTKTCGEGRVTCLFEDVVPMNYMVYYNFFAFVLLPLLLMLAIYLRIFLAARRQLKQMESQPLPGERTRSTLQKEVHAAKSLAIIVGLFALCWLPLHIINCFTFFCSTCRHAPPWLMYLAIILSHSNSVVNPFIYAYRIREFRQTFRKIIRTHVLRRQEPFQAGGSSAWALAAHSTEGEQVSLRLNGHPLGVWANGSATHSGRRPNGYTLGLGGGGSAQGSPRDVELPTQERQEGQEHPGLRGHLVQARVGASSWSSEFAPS

| SMILES | Ratio Ki (Rattus norvegicus [1]) | Ki (Adenosine receptor A2a [2]) [nM] | Ki (Adenosine receptor A1 [3]) [nM] | other results |
| --- | --- | --- | --- | --- |
| CCn1c(COc2ccccc2)nc2c1c(=O)n(C)c(=O)n2C | 2 | 2250 | 1100 | – |
| Cn1c(=O)c2c(nc(CCCc3ccccc3)n2C)n(C)c1=O | 4 | 6800 | 1550 | – |
| Cn1c(=O)c2c(nc(COc3ccccc3)n2C)n(C)c1=O | 0.77 | 2370 | 3090 | – |
| Cn1c(=O)c2c(nc(-c3ccccc3)n2C)n(C)c1=O | – | – | – | Ki (Adenosine receptor A2a [4]): 27000 nM |
| OC[C@H]1O[C@@H](n2cnc3c(NC4CCCC4)ncnc32)[C@H](O)[C@@H]1O [N6-CYCLOPENTYLADENOSINE] | – | 331 | – | – |
| CCCn1c(=O)c2[nH]c(C3CCCC3)nc2n(CCC)c1=O | – | – | – | inhibition (Rattus norvegicus [10]): Active |

Now from value to compound, other results behind:

| Ratio Ki (Rattus norvegicus [1]) | Ki (Adenosine receptor A2a [2]) [nM] | Ki (Adenosine receptor A1 [3]) [nM] | SMILES | other results |
| --- | --- | --- | --- | --- |
| 2 | 1910 | 874 | CCn1c(=O)c2c(nc(COc3ccccc3)n2C)n(CC)c1=O | – |
| 3 | 3930 | 1240 | CCn1c(=O)c2c(nc(CCCc3ccccc3)n2C)n(CC)c1=O | – |
| 3 | 3110 | 1090 | CCn1c(CCc2ccccc2)nc2c1c(=O)n(C)c(=O)n2C | – |
| 19 | 4930 | 259 | CCn1c(CCCc2ccccc2)nc2c1c(=O)n(C)c(=O)n2C | – |
| 0.86 | 4950 | 5740 | Cn1c(=O)c2c(nc(CCc3ccccc3)n2C)n(C)c1=O | – |
| 17 | 2710 | 164 | CCn1c(=O)c2c(nc(CCCc3ccccc3)n2CC)n(CC)c1=O | inhibition (Rattus norvegicus [5]): Active; Ki (Adenosine receptor A1 [6]): 258 nM; Ki (Adenosine receptor A1 [7]): 139 nM; Ki (Adenosine receptor A1 [8]): 209 nM; Ki (Adenosine receptor A1 [9]): 164 nM |
| 8 | 4970 | 636 | CCn1c(=O)c2c(nc(CCc3ccccc3)n2CC)n(CC)c1=O | Ki (Adenosine receptor A1 [6]): 681 nM; Ki (Adenosine receptor A1 [7]): 543 nM; Ki (Adenosine receptor A1 [8]): 763 nM; Ki (Adenosine receptor A1 [9]): 636 nM |
| 3 | 2360 | 816 | CCn1c(=O)c2c(nc(CCc3ccccc3)n2C)n(CC)c1=O | – |
| 6 | 2640 | 416 | CCn1c(=O)c2c(nc(COc3ccccc3)n2CC)n(CC)c1=O | Ki (Adenosine receptor A1 [6]): 368 nM; Ki (Adenosine receptor A1 [7]): 356 nM; Ki (Adenosine receptor A1 [8]): 397 nM; Ki (Adenosine receptor A1 [9]): 416 nM |
